Here are results for three compounds from ChEMBL document CHEMBL1150700, “Antitumor agents, 74. Bruceanol-A and -B, two new antileukemic quassinoids from Brucea antidysenterica” (1985).

Holding throughout (assay type): functional
The subject of assay [1] is P388. In words: In vivo antitumor activity against mouse P388 cells at 0.5 mg/kg in 3 day dosing schedule relative to control.
In assay [2] the test system is P388. In words: In vivo antitumor activity against mouse P388 cells at 2 mg/kg in 3 day dosing schedule relative to control.
The subject of assay [3] is P388. In words: In vivo antitumor activity against mouse P388 cells at 1 mg/kg in 3 day dosing schedule relative to control.
Assay [4] concerns P388. In words: In vivo antitumor activity against mouse P388 cells at 200 mg/kg in 1 day dosing schedule relative to control.

Structures are written as SMILES.

As to `CCCCCC(=O)O[C@H]1C(=O)O[C@@H]2C[C@H]3C(C)=CC(=O)[C@@H](O)[C@]3(C)[C@H]3[C@@H](O)[C@H](O)[C@@]4(C(=O)OC)OC[C@]32[C@@H]14`, the T/C is reported as 123% in the assay with P388 [1] and 134% with P388 [2].

With `COC(=O)[C@@]12OC[C@]34[C@H]([C@@H](O)[C@@H]1O)[C@@]1(C)[C@H](O)C(=O)C=C(C)[C@@H]1C[C@H]3OC(=O)[C@H](OC(=O)c1ccccc1)[C@@H]24`, the T/C in the assay on P388 [1] is given as 130%; in the assay on P388 [3], 129%.

On to `O=c1[nH]cc(F)c(=O)[nH]1` [FLUOROURACIL], for which the T/C in the assay on P388 [4] was found to be 135%.

One may read the T/C as the result in the treated group divided by that in the control group, in per cent.
